Results reported in patent publication US20250281479A1, “TREATMENT OF CAVERNOUS ANGIOMAS WITH A 4-SUBSTITUTED PIPERIDINE DERIVATIVE” (Neurelis, Inc., priority 2024, published 2025).
Read-outs that look alike come from different tables or passages of the source.

Experiments:
dog hepatocytes = assay: incubation with dog hepatocytes; format: in vitro ADME
Procedure: (§1) Exposure to NRL-2017 was similar or greater (up to 5-fold) than that to NRL-1049 in rats when dosed once a day (QD). In monkeys, exposure to NRL-2017 was also greater (up to 33-fold) than that to NRL-1049. When rats were dosed twice a day (BID) for 14 days, there was a decrease in formation of NRL-2017 with exposure to NRL-2017 lower than that of NRL-1049 (ratio as low as 0.06). […] NRL-1049 bound to human serum albumin and human alpha1-acid glycoprotein. […] There was also inhibition of P-glycoprotein (P-gp) (only CACO-2 cells), organic anion transporting polypeptides (OATP) OATP1B1, OATP1B3 and OAT3 (IC50, >100 μM), but no effect on P-gp (MDCK2 cells), breast cancer resistance protein (BCRP), bile salt export pump (BSEP), or MATE2-K. NRL-1049 is a substrate for P-gp, not BCRP. […] This conclusion will be revisited when human pharmacokinetic (PK) data becomes available.

plasma protein = plasma protein binding; format: in vitro ADME, mouse; settings: mouse, rat, dog, monkey, minipig and human plasma
Procedure: as §1

[1] = test system: human alpha1-acid glycoprotein; assay: binding to human alpha1-acid glycoprotein; format: in vitro ADME
Procedure: as §1

CYP2D6 [2] = target: T1, CYP2D6 (Homo sapiens, UniProt P10635); assay: CYP isozyme mediating metabolism; format: in vitro ADME
T1 sequence (P10635 whole entry): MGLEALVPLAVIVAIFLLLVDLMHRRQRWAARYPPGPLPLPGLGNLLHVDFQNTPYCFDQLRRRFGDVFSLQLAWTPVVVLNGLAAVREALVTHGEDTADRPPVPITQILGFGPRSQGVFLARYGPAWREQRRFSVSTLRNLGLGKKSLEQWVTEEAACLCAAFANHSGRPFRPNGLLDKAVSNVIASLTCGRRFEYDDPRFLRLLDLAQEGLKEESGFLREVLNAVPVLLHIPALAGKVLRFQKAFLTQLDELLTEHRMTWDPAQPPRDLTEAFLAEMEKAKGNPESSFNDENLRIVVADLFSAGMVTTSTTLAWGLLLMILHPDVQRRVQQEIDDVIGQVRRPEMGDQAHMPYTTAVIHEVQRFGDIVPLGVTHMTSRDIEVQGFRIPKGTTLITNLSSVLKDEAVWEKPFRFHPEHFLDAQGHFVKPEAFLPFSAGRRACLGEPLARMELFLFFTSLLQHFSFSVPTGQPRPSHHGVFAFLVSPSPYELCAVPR
Procedure: as §1

[3] = nonclinical pharmacokinetics after a single oral dose; format: in vivo, mice, rats, and monkeys
Procedure: as §1

CYP2D6 [4] = target: T1, CYP2D6; assay: CYP inhibition; format: in vitro ADME; settings: read-out: half-maximal inhibitory concentration (IC50)
Procedure: as §1

CYP2C8 = CYP2C8 (Homo sapiens, UniProt P10632); assay: CYP inhibition; format: in vitro ADME; settings: read-out: half-maximal inhibitory concentration (IC50)
CYP2C8, sequence (P10632 whole entry): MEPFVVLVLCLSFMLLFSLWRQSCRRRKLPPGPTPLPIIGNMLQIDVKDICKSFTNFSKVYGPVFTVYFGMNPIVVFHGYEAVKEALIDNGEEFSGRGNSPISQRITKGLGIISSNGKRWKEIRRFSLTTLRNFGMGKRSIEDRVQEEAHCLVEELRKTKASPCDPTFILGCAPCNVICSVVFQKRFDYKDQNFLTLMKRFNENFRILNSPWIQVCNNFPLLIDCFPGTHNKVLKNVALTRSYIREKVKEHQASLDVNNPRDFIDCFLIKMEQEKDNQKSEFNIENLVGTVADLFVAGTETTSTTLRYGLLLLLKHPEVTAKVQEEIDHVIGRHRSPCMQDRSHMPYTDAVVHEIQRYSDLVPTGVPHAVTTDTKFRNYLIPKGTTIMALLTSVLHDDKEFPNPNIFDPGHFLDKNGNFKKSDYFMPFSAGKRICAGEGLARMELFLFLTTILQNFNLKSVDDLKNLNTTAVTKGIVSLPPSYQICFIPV
Procedure: as §1

CYP3A4/5 = assay: CYP inhibition; format: in vitro ADME; settings: human
Procedure: as §1

Q: Which results are given for `C[C@@H](N)C1CCN(S(=O)(=O)c2cccc3cnccc23)CC1` [NRL-1049]?
A: metabolism by hepatocytes (dog hepatocytes): not metabolized; plasma protein binding (plasma protein): low to moderate; binding to human alpha1-acid glycoprotein [1]: bound; metabolism by CYP2D6 (CYP2D6 [2]): primarily mediated; exposure versus dose ([3]; in vivo): greater than dose-proportional; half-life ([3]; mouse, rat, monkey, plasma, single oral dose of NRL-1049, range over mice, rats, and monkeys, read-out: elimination phase half-life (t½)): 34.2 to 408 min; Tmax ([3]; mouse, rat, monkey, plasma, single oral dose of NRL-1049, range over mice, rats, and monkeys, read-out: time to maximum plasma concentration (Tmax)): 0.25 to 2 h; IC50 (CYP2D6 [4]): 180 nM; IC50 (CYP2C8): 160 µM; IC50 (CYP3A4/5; first of the two values printed 23/110, read-out: half-maximal inhibitory concentration (IC50)): 23 µM; IC50 (CYP3A4/5; second of the two values printed 23/110, read-out: half-maximal inhibitory concentration (IC50)): 110 µM
